According to ChEMBL document CHEMBL5393442, “Combined inhibition of amino acid transporters for inhibiting human plasmacytoid dendritic cell activity during autoimmunity” (2022):
Activity calls are given as the source filed them. No cut-off for these calls is given here.

Experiments:
[1] = molecular target: Large neutral amino acids transporter small subunit 1 (Homo sapiens) (UniProt Q01650); experiment: Inhibition of human LAT1 at 100 uM relative to control
[2] = molecular target: T1, Cystine/glutamate transporter (Homo sapiens, UniProt Q9UPY5); experiment: Inhibition of XCT (unknown origin)
T1 sequence (Q9UPY5 whole entry): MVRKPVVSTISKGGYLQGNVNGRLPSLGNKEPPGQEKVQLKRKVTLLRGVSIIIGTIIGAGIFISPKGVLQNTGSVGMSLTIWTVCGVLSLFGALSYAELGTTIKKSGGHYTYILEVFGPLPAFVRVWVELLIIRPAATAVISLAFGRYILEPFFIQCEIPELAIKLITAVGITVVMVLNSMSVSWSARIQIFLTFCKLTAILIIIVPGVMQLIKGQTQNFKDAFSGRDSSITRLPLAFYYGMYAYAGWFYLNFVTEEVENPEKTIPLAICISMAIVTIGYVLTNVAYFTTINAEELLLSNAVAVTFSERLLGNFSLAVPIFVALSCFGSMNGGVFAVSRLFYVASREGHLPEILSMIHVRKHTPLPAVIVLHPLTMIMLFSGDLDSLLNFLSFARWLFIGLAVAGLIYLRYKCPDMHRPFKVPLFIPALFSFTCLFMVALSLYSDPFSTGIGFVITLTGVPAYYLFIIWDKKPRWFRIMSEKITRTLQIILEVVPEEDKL

[3] = system: Plasmacytoid dendritic cell; experiment: Inhibition of F1F0-ATP synthase in human plasmacytoid dendritic cells at 1 uM assessed as decrease in IFN-alpha production; format: cell-based
[4] = system: Plasmacytoid dendritic cell; experiment: Inhibition of F1F0-ATP synthase in CpG-A-stimulated human plasmacytoid dendritic cells at 1 uM assessed as reduction in TNF production in presence of 10 uM heptelidic acid; format: cell-based
[5] = system: Plasmacytoid dendritic cell; experiment: Inhibition of F1F0-ATP synthase in CpG-A-stimulated human plasmacytoid dendritic cells at 1 uM assessed as reduction in IFN-alpha production in presence of 10 uM heptelidic acid; format: cell-based
[6] = system: Plasmacytoid dendritic cell; experiment: Inhibition of F1F0-ATP synthase in human plasmacytoid dendritic cells at 1 uM assessed as decrease in TNF production; format: cell-based
[7] = system: Plasmacytoid dendritic cell; experiment: Inhibition of SLC7A5/SLC3A2 in CpG-A-stimulated human plasmacytoid dendritic cells at 10 uM assessed as decrease in kynurenine transport; format: cell-based
[8] = molecular target: T2, Cystine/glutamate transporter (Homo sapiens) (UniProt Q9UPY5); experiment: Inhibition of XCT in CpG-A-activated human plasmacytoid dendritic cells at 25 to 100 uM assessed as decrease in TNF production in presence of 100 uM sulfasalazine; format: cell-based; settings: Plasmacytoid dendritic cell, dose 25-100 µM
T2 sequence (whole entry): T1 sequence (Q9UPY5 whole entry)

[9] = molecular target: Glyceraldehyde-3-phosphate dehydrogenase (Homo sapiens) (UniProt P04406); experiment: Inhibition of GAPDH in CpG-A-stimulated human plasmacytoid dendritic cells at 10 uM assessed as reduction in TNF production; format: cell-based; settings: Plasmacytoid dendritic cell
[10] = molecular target: Glyceraldehyde-3-phosphate dehydrogenase (Homo sapiens) (UniProt P04406); experiment: Inhibition of GAPDH in CpG-A-stimulated human plasmacytoid dendritic cells at 10 uM assessed as reduction in IFN-alpha production in presence of 1 uM oligomycin; format: cell-based; settings: Plasmacytoid dendritic cell
[11] = molecular target: Glyceraldehyde-3-phosphate dehydrogenase (Homo sapiens) (UniProt P04406); experiment: Inhibition of GAPDH in CpG-A-stimulated human plasmacytoid dendritic cells at 10 uM assessed as reduction in TNF production in presence of 1 uM oligomycin; format: cell-based; settings: Plasmacytoid dendritic cell
[12] = molecular target: Glyceraldehyde-3-phosphate dehydrogenase (Homo sapiens) (UniProt P04406); experiment: Inhibition of GAPDH in CpG-A-stimulated human plasmacytoid dendritic cells at 10 uM assessed as reduction in overall protein synthesis; format: cell-based; settings: Plasmacytoid dendritic cell
[13] = molecular target: Glyceraldehyde-3-phosphate dehydrogenase (Homo sapiens) (UniProt P04406); experiment: Inhibition of GAPDH in CpG-A-stimulated human plasmacytoid dendritic cells at 10 uM assessed as reduction in IFNa-alpha production; format: cell-based; settings: Plasmacytoid dendritic cell
[14] = molecular target: Glyceraldehyde-3-phosphate dehydrogenase (Homo sapiens) (UniProt P04406); experiment: Inhibition of GAPDH in CpG-A-stimulated human plasmacytoid dendritic cells at 10 uM assessed as reduction in secreted lactate levels; format: cell-based; settings: Plasmacytoid dendritic cell
[15] = molecular target: T2, Cystine/glutamate transporter (Homo sapiens); experiment: Inhibition of XCT in CpG-A-activated human plasmacytoid dendritic cells at 5 uM assessed as decrease in TNF production; format: cell-based; settings: Plasmacytoid dendritic cell
[16] = molecular target: T2, Cystine/glutamate transporter (Homo sapiens); experiment: Inhibition of XCT in CpG-A-activated human plasmacytoid dendritic cells at 10 uM assessed as decrease in MYO1E expression; format: cell-based; settings: Plasmacytoid dendritic cell
[17] = molecular target: T2, Cystine/glutamate transporter (Homo sapiens); experiment: Inhibition of XCT in CpG-A-activated human plasmacytoid dendritic cells at 1 uM assessed as decrease in TNF production; format: cell-based; settings: Plasmacytoid dendritic cell
[18] = molecular target: T2, Cystine/glutamate transporter (Homo sapiens); experiment: Inhibition of XCT in CpG-A-activated human plasmacytoid dendritic cells at 1 uM assessed as decrease in IFN-alpha production; format: cell-based; settings: Plasmacytoid dendritic cell
[19] = molecular target: T2, Cystine/glutamate transporter (Homo sapiens); experiment: Inhibition of XCT in CpG-A-activated human plasmacytoid dendritic cells at 5 uM assessed as decrease in S6 phosphorylation; format: cell-based; settings: Plasmacytoid dendritic cell
[20] = molecular target: T2, Cystine/glutamate transporter (Homo sapiens); experiment: Inhibition of XCT in CpG-A-activated human plasmacytoid dendritic cells at 5 uM assessed as decrease in kynurenine uptake; format: cell-based; settings: Plasmacytoid dendritic cell
[21] = molecular target: T2, Cystine/glutamate transporter (Homo sapiens); experiment: Inhibition of XCT in CpG-A-activated human plasmacytoid dendritic cells at 5 uM assessed as decrease in IFN-alpha production; format: cell-based; settings: Plasmacytoid dendritic cell
[22] = molecular target: T2, Cystine/glutamate transporter (Homo sapiens); experiment: Inhibition of XCT in CpG-A-activated human plasmacytoid dendritic cells at 10 uM assessed as decrease in ENPP2 expression; format: cell-based; settings: Plasmacytoid dendritic cell

Glyceraldehyde-3-phosphate dehydrogenase (Homo sapiens), sequence (P04406 2-335 limits assumed): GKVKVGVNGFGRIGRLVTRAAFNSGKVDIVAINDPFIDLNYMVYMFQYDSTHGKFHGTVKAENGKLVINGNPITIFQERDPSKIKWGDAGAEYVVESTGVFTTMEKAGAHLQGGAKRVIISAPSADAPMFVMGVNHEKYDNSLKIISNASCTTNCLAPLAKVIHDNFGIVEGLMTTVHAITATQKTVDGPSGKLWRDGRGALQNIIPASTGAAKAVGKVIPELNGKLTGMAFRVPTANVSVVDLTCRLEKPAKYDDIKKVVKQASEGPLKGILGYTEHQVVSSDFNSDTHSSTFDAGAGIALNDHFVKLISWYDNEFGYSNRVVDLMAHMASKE
Large neutral amino acids transporter small subunit 1 (Homo sapiens), sequence (Q01650 whole entry): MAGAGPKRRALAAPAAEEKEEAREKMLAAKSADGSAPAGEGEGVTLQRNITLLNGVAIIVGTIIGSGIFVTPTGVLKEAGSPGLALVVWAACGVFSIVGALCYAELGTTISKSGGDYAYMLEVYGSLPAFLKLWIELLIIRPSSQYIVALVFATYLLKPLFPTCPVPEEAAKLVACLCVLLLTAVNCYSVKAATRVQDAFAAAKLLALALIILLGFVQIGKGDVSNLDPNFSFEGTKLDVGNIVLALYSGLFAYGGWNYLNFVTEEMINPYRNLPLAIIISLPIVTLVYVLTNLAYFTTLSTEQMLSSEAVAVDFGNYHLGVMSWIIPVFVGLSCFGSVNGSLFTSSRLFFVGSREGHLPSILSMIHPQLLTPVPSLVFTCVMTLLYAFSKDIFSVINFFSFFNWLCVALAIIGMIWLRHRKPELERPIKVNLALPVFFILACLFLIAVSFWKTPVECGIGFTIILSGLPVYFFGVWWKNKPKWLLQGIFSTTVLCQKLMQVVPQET

FC(F)(F)Oc1ccc(/N=c2\ssnc2Cl)cc1Cl
inhibition [1]: > 90%

Nc1c(/N=N/c2ccc(Oc3ccccc3)cc2)cc(S(=O)(=O)O)c2ccccc12
IC50 [2]: 14 µM

N#Cc1cc(Cl)ccc1/N=c1\ssnc1Cl
inhibition [1]: > 90%

CC[C@H]1/C=C/C=C/C[C@@H](C)[C@H](O)[C@@](C)(O)C(=O)[C@@H](C)[C@H](O)[C@@H](C)C(=O)[C@@H](C)[C@H](O)[C@@H](C)/C=C/C(=O)O[C@@H]2[C@H](C)[C@H](CC1)O[C@]1(CC[C@H](C)[C@H](C[C@@H](C)O)O1)[C@H]2C
inhibition [3]: Active | inhibition [4]: Active | inhibition [5]: Active | inhibition [6]: inactive

NC1(C(=O)O)CC2CCC1C2 (centres undefined)
inhibition [7]: Active

CCS(=O)(=O)N1CC(CC#N)(n2cc(-c3ncnc4[nH]ccc34)cn2)C1
inhibition [8]: Active

CC(C)[C@H]1CC[C@@]2(CO2)[C@H]2C(=O)OCC(C(=O)O)=C[C@H]12
inhibition [9]: Active | inhibition [10]: Active | inhibition [11]: Active | inhibition [12]: Active | inhibition [13]: Active | inhibition [14]: Active

Nc1c(/N=N/c2ccc(Br)cc2)cc(S(=O)(=O)O)c2ccccc12
IC50 [2]: 25 µM

CCOc1ccccc1-n1c(C(C)N2CCN(C(=O)COc3ccc(Cl)cc3)CC2)nc2ccccc2c1=O (centres undefined)
inhibition [15]: Active | inhibition [16]: Active | inhibition [17]: Active | inhibition [18]: Active | inhibition [19]: Active | inhibition [20]: Active | inhibition [21]: Active | inhibition [22]: Active
